The values that follow come from US5143918A, “Halomacrolides and derivatives having immunosuppressive activity” (Merck & Co., Inc., priority 1991, dated 1992).

One assay relates to T lymphocytes (T-cells). The experiment in a line: T-Cell Proliferation Assay (tritiated thymidine uptake). The class given is cell-based, C57B1/6 mice. The settings on record: mouse spleen T lymphocytes, ionomycin 250 ng/ml and PMA 10 ng/ml, 44 h culture + 4 h tritiated thymidine, read-out: IC50 (concentration of compound required to inhibit tritiated thymidine uptake / proliferation of T-cells by 50%). The method, then: T-Cell Proliferation Assay
The compounds to be assayed were dissolved in absolute ethanol at 1 mg/ml.
Spleens from C57B1/6 mice were taken under sterile conditions and gently dissociated in ice-cold RPMI 1640 culture medium (GIBC), Grand Island, N.Y.) supplemented with 10% heat-inactivated fetal calf serum (GIBO)). Cells were pelleted by centrifugation at 1500 rpm for 8 minutes. Contaminating red cells were removed by treating the pellet with ammonium chloride lysing buffer (GIBO)) for 2 minutes at 4° C. Cold medium was added and cells were again centrifuged at 1500 rpm for 8 minutes. T lymphocytes were then isolated by separation of the cell suspension on nylon wool columns as follows: Nylon wool columns were prepared by packing approximately 4 grams of washed and dried nylon wool into 20 ml plastic syringes. The columns were sterilized by autoclaving at […]. for 30 minutes. Nylon wool columns were wetted with warm (37° C.) culture medium and rinsed with the same medium. Washed spleen cells resuspened in warm medium were slowly applied to the nylon wool. The columns were then incubated in an upright position at 37° C. for 1 hour. Non-adherent T lymphocytes were eluted from the columns with warm culture medium and the cell suspensions were spun as above.
Purified T lymphocytes were resuspended at 2.5×10^5 cells/ml in complete culture medium composed of RPMI 1640 medium with 10% heat-inactivated fetal calf serum, […], 1 mM sodium pyruvate, 2×10^-5 M 2-mercaptoethanol and 50 μg/ml gentamycin. Ionomycin was added at 250 ng/ml and PMA at 10 ng/ml. The cell suspension was immediately distributed into 96 well flat-bottom microculture plates (Costar) at 200 μl/well. The various dilutions of the compound to be tested were then added in triplicate wells at 20 ul/well. The compound 17-allyl-1,14-dihydroxy-12-[2'-(4"-hydroxy-3"-methoxycyclohexyl)-1'-methylvinyl]-23,25-dimethoxy-13,19,21,27-tetramethyl-11,28-dioxa-4-azatricyclo[22.3.1.0^4,9 ]octacos-18-ene-2,3,10,16-tetraone was used as a standard. The culture plates were then incubated at 37° C. in a humidified atmosphere of 5% CO2 -95% air for 44 hours. The proliferation of T lymphocytes was assessed by measurement of tritiated thymidine incorporation. After 44 hours of culturing, the cells were pulse-labelled with 2 μCi/well of tritiated thymidine (NEN, Cambridge, Mass.). After another 4 hours of incubation, cultures were harvested on glass fiber filters using a multiple sample harvester. Radio activity of filter discs corresponding to individual wells was measured by standard liquid scintillation counting methods (Betacounter). Mean counts per minute of replicate wells were calculated and the results expressed as concentration of compound required to inhibit tritiated thymidine uptake of T-cells by 50%.
A selection of compounds were tested according to the previous procedure. The concentration of compound required to inhibit the proliferation of T-cells by 50% was measured, and the results were as follows: […]

The test system of the next assay is in vitro immune systems. The settings on record: versus cyclosporin; J. Antibiotics 1987, 40, 1256; cited from earlier work.

pIC50: −log10 of the molar value. Where two headings read alike, the source gives them in different places.

On to `CCC1C=C(C)CC(C)CC(OC)C2OC(O)(C(=O)C(=O)N3CCCCC3C(=O)OC(C(C)=CC3CCC(I)C(OC)C3)C(C)C(O)CC1=O)C(C)CC2OC` (stereo not drawn) [Example 59, 17-Ethyl-1,14-dihydroxy-12-[2'-(4"-beta-iodo-3"-methoxycyclohexyl)-1'-methylvinyl]-23,25-dimethoxy-13,19,21,27-tetramethyl-11,28-dioxa-4-azatricyclo-[22.3.1.0^4,9]octacos-18-ene-2,3,10,16-tetraone], for which the pIC50 in the assay on T lymphocytes (T-cells) was greater than 6.00. For the compound `C=CCC1C=C(C)CC(C)CC(OC)C2OC(O)(C(=O)C(=O)N3CCCCC3C(=O)OC(C(C)=CC3CCC(O)C(OC)C3)C(C)C(O)CC1=O)C(C)CC2OC` (centres unmarked) [FR-900506, 17-allyl-1,14-dihydroxy-12-[2'-(4"-hydroxy-3"-methoxycyclohexyl)-1'-methylvinyl]-23,25-dimethoxy-13,19,21,27-tetramethyl-11,28-dioxa-4-azatricyclo-[22.3.1.0^4,9]octacos-18-ene-2,3,10,16-tetraone], the “times more effective than cyclosporin in the suppression of in vitro immune systems” value in the assay with in vitro immune systems was 100 times. As to “17-Ethyl-1-hydroxy-12-[2'-(3"-chloro-4"-hydroxycyclohexyl)-1'-methylvinyl]- 23,25-dimethoxy-13,19,21,27-tetramethyl-11,28-dioxa-4-azatricyclo[22.3.1.0^4,9 ]octacos-18-ene-2,3,10,16-tetraone [Example 87]”, the pIC50 in the assay on T lymphocytes (T-cells) was greater than 6.00. Turning to `CCC1C=C(C)CC(C)CC(OC)C2OC(O)(C(=O)C(=O)N3CCCCC3C(=O)OC(C(C)=CC3CCC(F)C(OC)C3)C(C)C(O)CC1=O)C(C)CC2OC` (centres unmarked) [Example 62, 17-Ethyl-1,14-dihydroxy-12-[2'-(4"-fluoro-3"-methoxycyclohexyl)-1'-methylvinyl]-23,25-dimethoxy-13,19,21,27-tetramethyl-11,28-dioxa-4-azatricyclo-[22.3.1.0^4,9]octacos-18-ene-2,3,10,16-tetraone], in the assay on T lymphocytes (T-cells) (T-cell), the pIC50 was greater than 6.00. The same measure, in the same setting: next, `CCC1C=C(C)CC(C)CC(OC)C2OC(O)(C(=O)C(=O)N3CCCCC3C(=O)OC(C(C)=CC3CCC(Cl)C(OC)C3)C(C)CCC1=O)C(C)CC2OC` (stereo not drawn) [Example 40, 17-Ethyl-1-hydroxy-12-[2'-(4"-beta-chloro-3"-methoxycyclohexyl)-1'-methylvinyl]-23,25-dimethoxy-13,19,21,27-tetramethyl-11,28-dioxa-4-azatricyclo-[22.3.1.0^4,9]octacos-18-ene-2,3,10,16-tetraone]: greater than 6.00; `CCC1C=C(C)CC(C)CC(OC)C2OC(O)(C(=O)C(=O)N3CCCCC3C(=O)OC(C(C)=CC3CCC(O)C(Br)C3)C(C)CCC1=O)C(C)CC2OC` (centres unmarked) [Example 89, 17-Ethyl-1-hydroxy-12-[2'-(3"-bromo-4"-hydroxycyclohexyl)-1'-methylvinyl]-23,25-dimethoxy-13,19,21,27-tetramethyl-11,28-dioxa-4-azatricyclo[22.3.1.0^4,9]octacos-18-ene-2,3,10,16-tetraone]: greater than 6.00; `CCC1C=C(C)CC(C)CC(OC)C2OC(O)(C(=O)C(=O)N3CCCCC3C(=O)OC(C(C)=CC3CCC(Br)C(OC)C3)C(C)C(O)CC1=O)C(C)CC2OC` (stereo not drawn) [Example 56, 17-Ethyl-1,14-dihydroxy-12-[2'-(4"-beta-bromo-3"-methoxycyclohexyl)-1'-methylvinyl]-23,25-dimethoxy-13,19,21,27-tetramethyl-11,28-dioxa-4-azatricyclo[22.3.1.0^4,9]octacos-18-ene-2,3,10,16-tetraone]: greater than 6.00. Same read-out and setting: the same measure for `CCC1C=C(C)CC(C)CC(OC)C2OC(O)(C(=O)C(=O)N3CCCCC3C(=O)OC(C(C)=CC3CCC(Cl)C(OC)C3)C(C)C(O)CC1=O)C(C)CC2OC` (stereo not drawn) [Example 53, 17-Ethyl-1,14-dihydroxy-12-[2'-(4"-beta-chloro-3"-methoxycyclohexyl)-1'-methylvinyl]-23,25-dimethoxy-13,19,21,27-tetramethyl-11,28-dioxa-4-azatricyclo[22.3.1.0^4,9]octacos-18-ene-2,3,10,16-tetraone]: greater than 6.00.
